Test results taken from patent US6514918B1, “Viscous, mild, and effective cleansing compositions” (Johnson & Johnson Consumer Companies, Inc., priority 2000, dated 2003).

Tests used:
[1] = Foam Generation (Foam Tray Test); type: physicochemical; details: 1.0% in cleansing composition; acceptable if at least twice the foam of Example 1
Experimental: 1. Foam Generation: 1 g of a cleansing composition sample was added to a tray containing 5 liters of tap water, then gently mixed until homogenous without generating any foam. A Model AJMP14 Jiffy Mixer mechanical mixer available from U.S. Best, Inc. with an attached propeller blade was then set at a level in the tray such that the propeller blade was halfway immersed in the mixture. The mixer was then activated at a speed of 2000 RPM for 30 seconds to generate foam. Foam data was collected via photography using a Polaroid MP4+ camera at 30 seconds after the mixing was ceased. The area of foam in the tray was calculated and reported as % area of foam in tray.
Foam performance evaluation was then accomplished for each of the cleansing compositions of Examples 1-8.
Foaming of the Examples was considered acceptable if it was at least twice the amount of foam of Example 1.

[2] = Final batch viscosity, Brookfield DV-I+ Viscometer; type: physicochemical; details: 1.0% in cleansing composition; acceptable if at least twice the viscosity of Example 1
Experimental: After this mixture had cooled to a temperature not greater than 40° C., the following components were added sequentially thereto: 0.10 parts Tetrasodium EDTA, 0.05 parts Quaternium-15, and 1.9 parts Glycerin. After this solution mixture had cooled to room temperature (approximately 25° C.), the pH of the resulting solution was then adjusted with a 20% citric acid solution until a final pH of 6.0 to 6.6 was obtained. The batch weight of the solution was then adjusted with water in order to achieve a total formulation of 100 parts. Table 2 lists the final batch viscosity of each Example as measured by a Brookfield DV-I+Viscometer using the indicated spindle and speed.
The viscosity of the examples was considered acceptable if it was at least twice the viscosity of Example 1.

subject's eye = assay: Ocular Irritancy Test (human ocular sting); type: in vivo; details: 1.0% in mild cleansing composition
Experimental: 2. Ocular Irritancy Test: Using a double-blinded, randomized, two (2) cell study test design, one (1) drop of a sample (e.g. a 10% dilution of a cleansing composition in water) at a temperature of about 38° C. was instilled into a subject's eye. A new sterile disposable eyedropper was used for each sample and disposed of after being used on only one individual's eye. All instillations were performed either by an investigator or by a trained technician.
Within 30 seconds, or as closely as possible following instillation, the subject was asked to grade the perceived stinging sensation to the eye utilizing the following criteria:
After 15 minutes and 60 minutes post-instillation, the subject was again asked to grade the perceived stinging sensation to the eye. The data was collected from a balanced, complete block experiment then statistically analyzed.
The samples of Examples 1-8 were tested for ocular irritancy. The results are reported in Table 4 in terms of the percentage of subjects who found the respective sample to be stinging to their eyes.
A sample was considered to have low ocular irritancy if less than 20% of the people tested found the sample to sting their eyes.

Row | Substance | Effect on foam generation in mild cleansing compositions [1] | Effect on viscosity of a mild cleansing composition [2] | Mildness to the eye relative to Cocamide MIPA and Cocamide MEA (subject's eye)
1 | Cocamide MEA [reference compound] | effective at increasing foam generation | effective at increasing the viscosity | 
2 | PEG-3 Cocamide | effective at increasing foam generation | effective at increasing the viscosity | significantly more mild to the eye
3 | polyethylene glycol (“PEG”)-6 Cocamide [PEG-6 Cocamide] | effective at increasing foam generation | effective at increasing the viscosity | significantly more mild to the eye
4 | polypropylene glycol (“PPG”)-2 Hydroxyethyl Cocamide [PPG-2 Hydroxyethyl Cocamide] | effective at increasing foam generation | effective at increasing the viscosity | significantly more mild to the eye
5 | PEG-6 Lauramide | effective at increasing foam generation | effective at increasing the viscosity | significantly more mild to the eye

Now from value to substance, other results behind:

Row | Effect on foam generation in mild cleansing compositions [1] | Effect on viscosity of a mild cleansing composition [2] | Substance | Mildness to the eye relative to Cocamide MIPA and Cocamide MEA (subject's eye)
6 | effective at increasing foam generation | effective at increasing the viscosity | Cocamide MIPA [reference compound] | 
7 | effective at increasing foam generation | effective at increasing the viscosity | Cocamide DEA [reference compound] | significantly more mild to the eye
